{
  "source": "BindingDB's records for doi:10.1038/sj.bjp.0705908",
  "about": "(Abbott Laboratories, 2004)",
  "molecular_target": "T1, Calcium-activated potassium channel subunit beta (Sus scrofa, UniProt C0KY85)",
  "T1 sequence (C0KY85 whole entry)": "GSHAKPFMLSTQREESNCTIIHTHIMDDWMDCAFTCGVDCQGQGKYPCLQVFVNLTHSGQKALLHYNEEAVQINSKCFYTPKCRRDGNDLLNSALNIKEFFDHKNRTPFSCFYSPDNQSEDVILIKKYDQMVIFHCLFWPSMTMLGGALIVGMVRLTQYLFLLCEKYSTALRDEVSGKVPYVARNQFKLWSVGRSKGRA",
  "data": [
    {"smiles": "CCC(C)(C)NC(=NC#N)Nc1cccnc1", "note": "[NSC_43345]", "values": [
      {"measurement": "Ki", "value": 10.7, "unit": "nM"}
    ]}
  ]
}
